{"source": "patent US7772198B2", "about": "“CFTR channel modulators” (Centre National de la Recherche Scientifique, priority 2003, dated 2010)", "key": {"[1]": {"molecular_target": "wild-type CFTR protein (Calu-3 cells) (Homo sapiens, UniProt P13569)", "sequence (P13569 whole entry)": "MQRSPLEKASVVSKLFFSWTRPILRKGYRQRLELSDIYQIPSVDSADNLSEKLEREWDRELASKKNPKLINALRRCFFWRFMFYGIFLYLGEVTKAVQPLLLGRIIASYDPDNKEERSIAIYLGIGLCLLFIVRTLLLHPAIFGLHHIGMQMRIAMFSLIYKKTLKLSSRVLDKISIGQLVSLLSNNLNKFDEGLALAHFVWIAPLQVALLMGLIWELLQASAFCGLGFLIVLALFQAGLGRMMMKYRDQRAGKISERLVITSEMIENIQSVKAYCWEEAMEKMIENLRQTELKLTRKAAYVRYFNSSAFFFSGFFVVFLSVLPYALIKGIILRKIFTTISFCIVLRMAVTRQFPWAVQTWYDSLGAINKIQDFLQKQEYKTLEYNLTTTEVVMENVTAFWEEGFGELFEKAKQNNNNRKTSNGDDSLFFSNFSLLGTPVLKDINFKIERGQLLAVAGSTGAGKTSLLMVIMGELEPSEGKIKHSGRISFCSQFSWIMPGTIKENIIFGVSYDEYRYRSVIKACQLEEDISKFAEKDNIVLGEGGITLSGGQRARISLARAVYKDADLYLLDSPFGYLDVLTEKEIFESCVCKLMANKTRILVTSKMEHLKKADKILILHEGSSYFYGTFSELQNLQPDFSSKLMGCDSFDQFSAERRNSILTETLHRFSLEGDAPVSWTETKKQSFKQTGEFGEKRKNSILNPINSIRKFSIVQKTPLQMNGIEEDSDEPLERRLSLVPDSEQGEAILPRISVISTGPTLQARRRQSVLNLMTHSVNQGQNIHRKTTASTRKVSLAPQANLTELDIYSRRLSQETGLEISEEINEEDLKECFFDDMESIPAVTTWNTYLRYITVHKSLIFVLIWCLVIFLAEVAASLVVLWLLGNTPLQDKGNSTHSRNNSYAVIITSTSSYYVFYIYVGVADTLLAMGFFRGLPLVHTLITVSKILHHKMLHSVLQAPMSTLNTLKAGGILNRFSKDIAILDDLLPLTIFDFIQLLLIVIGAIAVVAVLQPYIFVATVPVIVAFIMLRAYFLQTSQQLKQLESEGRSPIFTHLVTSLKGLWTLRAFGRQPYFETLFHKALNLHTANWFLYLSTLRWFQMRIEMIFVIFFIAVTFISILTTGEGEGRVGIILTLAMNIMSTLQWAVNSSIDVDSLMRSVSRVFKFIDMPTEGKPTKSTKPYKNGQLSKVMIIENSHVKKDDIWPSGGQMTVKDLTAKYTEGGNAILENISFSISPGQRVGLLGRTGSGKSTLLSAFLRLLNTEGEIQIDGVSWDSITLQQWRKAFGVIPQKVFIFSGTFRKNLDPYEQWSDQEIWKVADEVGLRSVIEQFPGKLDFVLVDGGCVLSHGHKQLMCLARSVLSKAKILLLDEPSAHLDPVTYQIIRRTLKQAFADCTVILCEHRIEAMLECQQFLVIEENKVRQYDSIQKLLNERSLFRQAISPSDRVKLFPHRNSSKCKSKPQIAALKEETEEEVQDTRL", "experiment": "iodide efflux, Calu-3 human lung cells naturally expressing wild-type CFTR"}, "[2]": {"molecular_target": "T1, wild-type CFTR receptor (CHO-WT cells) (Homo sapiens, UniProt P13569)", "T1 construct": "expressed in transfected cells; host or cells: CHO (Chinese Hamster Ovary) cells, stably transfected", "experiment": "125I iodide efflux, CHO cells overexpressing wild-type CFTR (CHO-WT)", "format": "cell-based", "details": "for Effect: + activator, − inhibitor, compound 1 μM, 100% = activation with 1 μM forskolin; for EC50: activators, 1 μM forskolin; for IC50: 5 μM Fsk; for effect on wild-type receptors: summary of Table II"}, "[3]": {"molecular_target": "T2, G551D-CFTR (CHO-G551D cells) (Homo sapiens, UniProt P13569, G551D)", "T2 construct": "expressed in transfected cells; host or cells: CHO (Chinese Hamster Ovary) cells, stably transfected", "T2 sequence (P13569 whole entry G551D)": "as the sequence (P13569 whole entry) above, with G551D counted along it", "experiment": "125I iodide efflux, CHO cells expressing G551D mutated CFTR (CHO-G551D)", "format": "cell-based", "details": "for IC50: 10 μM Fsk + 30 μM genistein; for effect on G551D mutated receptors: summary of Table II"}, "[4]": {"test_system": "diarrhoea caused by the cholera toxin", "details": "mouse, in vivo; cited from earlier work"}, "CFTR channel": {"molecular_target": "CFTR channel (Homo sapiens, UniProt P13569)", "sequence (P13569 whole entry)": "as the sequence (P13569 whole entry) above", "details": "read-out: IC50, concentration to inhibit 50% of the activity of the CFTR channel; cited from earlier work"}, "mice": {"test_system": "mice", "details": "at 7 days, 10 mg/kg injection; cited from earlier work"}, "[5]": {"experiment": "pKa evaluation in aqueous solution", "format": "physicochemical", "description": "As an example, the pKa of this compound was evaluated at 4. This means that in an aqueous solution with a pH of 7, this compound is mainly in zwitterionic form, as in the case of highly diluted solutions such as those used for biological tests."}, "[6]": {"molecular_target": "mutated F508-CFTR (CF15 cells) (Homo sapiens, UniProt P13569, DEL508-508)", "sequence (P13569 with tags, fused parts or gaps DEL508-508)": "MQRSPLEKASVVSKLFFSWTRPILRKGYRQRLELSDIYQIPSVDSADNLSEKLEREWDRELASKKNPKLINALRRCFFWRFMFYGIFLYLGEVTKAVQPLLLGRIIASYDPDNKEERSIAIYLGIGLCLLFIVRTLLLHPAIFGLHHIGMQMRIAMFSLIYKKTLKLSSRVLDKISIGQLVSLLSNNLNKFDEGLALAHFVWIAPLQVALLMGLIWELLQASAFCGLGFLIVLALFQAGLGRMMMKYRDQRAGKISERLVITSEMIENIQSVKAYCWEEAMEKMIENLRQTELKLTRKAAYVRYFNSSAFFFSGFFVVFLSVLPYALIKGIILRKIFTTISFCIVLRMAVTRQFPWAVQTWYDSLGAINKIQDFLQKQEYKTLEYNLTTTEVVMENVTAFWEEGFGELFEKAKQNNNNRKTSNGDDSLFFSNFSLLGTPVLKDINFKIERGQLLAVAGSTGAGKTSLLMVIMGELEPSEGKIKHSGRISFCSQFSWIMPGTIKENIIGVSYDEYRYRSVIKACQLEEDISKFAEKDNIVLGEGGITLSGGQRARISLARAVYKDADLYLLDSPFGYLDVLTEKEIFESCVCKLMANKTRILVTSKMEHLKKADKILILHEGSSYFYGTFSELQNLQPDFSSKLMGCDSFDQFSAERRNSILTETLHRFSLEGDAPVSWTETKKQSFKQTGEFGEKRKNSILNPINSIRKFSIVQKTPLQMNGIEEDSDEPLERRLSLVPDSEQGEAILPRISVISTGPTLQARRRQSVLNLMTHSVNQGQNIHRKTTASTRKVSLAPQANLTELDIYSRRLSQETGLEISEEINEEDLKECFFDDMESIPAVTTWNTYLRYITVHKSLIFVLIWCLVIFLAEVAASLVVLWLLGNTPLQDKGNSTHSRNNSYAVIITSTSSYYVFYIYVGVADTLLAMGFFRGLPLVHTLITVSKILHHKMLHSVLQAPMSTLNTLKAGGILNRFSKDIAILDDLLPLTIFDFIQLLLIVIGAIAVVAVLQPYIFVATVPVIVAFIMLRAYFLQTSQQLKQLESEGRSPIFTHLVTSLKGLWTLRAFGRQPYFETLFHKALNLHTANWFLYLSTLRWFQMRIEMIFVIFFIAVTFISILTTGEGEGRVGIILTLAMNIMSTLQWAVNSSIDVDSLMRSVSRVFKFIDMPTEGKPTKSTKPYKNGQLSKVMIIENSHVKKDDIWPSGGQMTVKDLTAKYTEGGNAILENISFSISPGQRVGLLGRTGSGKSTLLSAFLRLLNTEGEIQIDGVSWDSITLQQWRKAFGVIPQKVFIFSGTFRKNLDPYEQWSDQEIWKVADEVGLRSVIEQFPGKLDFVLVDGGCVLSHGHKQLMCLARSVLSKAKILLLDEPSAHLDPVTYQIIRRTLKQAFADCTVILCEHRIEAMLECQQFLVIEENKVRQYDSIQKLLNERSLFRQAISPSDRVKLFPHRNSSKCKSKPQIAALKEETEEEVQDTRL", "experiment": "iodide efflux, CF15 human nasal epithelial cells expressing mutated F508-CFTR", "details": "results not shown"}, "[7]": {"details": "1 μM compound added to 1 μM Fsk"}, "[8]": {"details": "1 μM compound added to 5 μM Fsk"}, "[9]": {"details": "1 μM compound added to 10 μM Fsk + 30 μM genistein"}}, "note": "Like-named read-outs stand apart in the source and are kept apart here."}
{"smiles": "CCCn1cnc2c1N=CN1C2=N[C@](C)(C(=O)O)[C@@H](O)[C@@]1(C)O", "note": "(racemic) [Compound 9a]", "values": [{"measurement": "EC50", "setting": "[1]", "result": 2000, "unit": "nM"}, {"measurement": "Effect", "setting": "[2]", "result": "+ (In case of a significant increase, the compound was listed as an activator)"}, {"measurement": "EC50", "setting": "[2]", "result": 2000, "unit": "nM"}]}
{"smiles": "C=CCn1cnc2c1N=CN1C2=NC(C)(C(=O)O)C(O)C1(C)O", "note": "(mixture of isomers) [Compound 10, 9-allyladenine Adducts]", "values": [{"measurement": "Effect", "setting": "[2]", "result": "+ (In case of a significant increase, the compound was listed as an activator)"}, {"measurement": "EC50", "setting": "[2]", "result": 7500, "unit": "nM"}]}
{"smiles": "C[N+](C)(C)CC(=O)O", "note": "[Betaine, reference compound]", "values": [{"measurement": "IC50", "setting": "[2]", "result": 96000, "unit": "nM"}]}
{"smiles": "C[n+]1cn([C@@H]2O[C@H](CO)[C@@H](O)[C@H]2O)c2nc(N)nc([O-])c21", "note": "[Compound 8, 7-methylguanosine]", "values": [{"measurement": "IC50", "setting": "[1]", "result": 11000, "unit": "nM"}, {"measurement": "IC50", "setting": "[2]", "result": 3500, "unit": "nM"}, {"measurement": "IC50", "setting": "[3]", "result": 15000, "unit": "nM"}]}
{"smiles": "CC1(C(=O)O)N=C2C(O)=CC=CN2C(C)(O)C1O", "note": "(mixture of isomers) [Compound 3, 2-amino-3-hydroxypyridine Adducts]", "values": [{"measurement": "IC50", "setting": "[1]", "result": 11000, "unit": "nM"}, {"measurement": "IC50", "setting": "[2]", "result": 4000, "unit": "nM"}, {"measurement": "IC50", "setting": "[3]", "result": 36000, "unit": "nM"}]}
{"smiles": "CCCN1C=CC2=N[C@](C)(C(=O)O)[C@H](O)[C@@](C)(O)N2C1=O", "note": "[Compound 2b]", "values": [{"measurement": "IC50", "setting": "[2]", "result": 1.5, "unit": "nM"}]}
{"smiles": "CCC1(C(=O)O)N=C2C=CC=CN2C(O)(CC)C1O", "note": "(mixture of isomers) [Compound 11]", "values": [{"measurement": "IC50", "setting": "[2]", "result": 18000, "unit": "nM"}]}
{"smiles": "CCCN1C=CC2=NC(C)(C(=O)O)C(O)C(C)(O)N2C1=O", "note": "(centres unmarked) [Compound 2, 1-propylcytosine Adducts]", "values": [{"measurement": "IC50", "setting": "[1]", "result": 2, "unit": "nM"}, {"measurement": "IC50", "setting": "[2]", "result": 2, "unit": "nM"}, {"measurement": "IC50", "setting": "[3]", "result": 154, "unit": "nM"}]}
{"smiles": "CCCn1cnc2c1N=CN1C2=N[C@](C)(C(=O)O)[C@H](O)[C@@]1(C)O", "note": "(racemic) [Compound 9b]", "values": [{"measurement": "Effect", "setting": "[2]", "result": "+ (In case of a significant increase, the compound was listed as an activator)"}, {"measurement": "EC50", "setting": "[2]", "result": 3000, "unit": "nM"}]}
{"smiles": "O=C(O)c1ccc(/C=C2\\SC(=S)N(c3cccc(C(F)(F)F)c3)C2=O)cc1", "note": "[CFTRinh-172]", "values": [{"measurement": "reduction of diarrhoea caused by the cholera toxin", "setting": "[4]", "result": "more than 90%"}, {"measurement": "IC50", "setting": "CFTR channel", "result": 200, "unit": "nM"}, {"measurement": "toxicity in mice", "setting": "mice", "result": "absence of toxicity"}]}
{"smiles": "Cc1nc2cccc[n+]2c(C)c1O", "note": "[6 (chlorhydrate)]", "values": [{"measurement": "IC50", "setting": "[2]", "result": 7, "unit": "nM"}]}
{"smiles": "C[C@]1(C(=O)O)N=C2c3nc[nH]c3N=CN2[C@](C)(O)[C@H]1O", "note": "(single isomer, unassigned) [Compound 5a]", "values": [{"measurement": "IC50", "setting": "[2]", "result": 10000, "unit": "nM"}]}
{"smiles": "CC1(C(=O)O)N=C2c3ncn([C@H]4CC(O)[C@@H](CO)O4)c3N=CN2C(C)(O)C1O", "note": "(stereo in doubt) [Compound 1, 2′-deoxyadenosine Adducts]", "values": [{"measurement": "IC50", "setting": "[1]", "result": 0.093, "unit": "nM"}, {"measurement": "effect on activation of wild-type CFTR (CHO-WT)", "setting": "[2]; [7]", "result": "inhibition"}, {"measurement": "effect on activation of wild-type CFTR (CHO-WT)", "setting": "[2]; [8]", "result": "inhibition"}, {"measurement": "effect on activation of wild-type CFTR (CHO-WT)", "setting": "[2]; [9]", "result": "inhibition"}, {"measurement": "IC50", "setting": "[2]", "result": 0.071, "unit": "nM"}, {"measurement": "effect on wild-type receptors", "setting": "[2]", "result": "effectively antagonises the action of the forskolin and genistein activators"}, {"measurement": "effect on activation of mutated CFTR (CHO-G551D)", "setting": "[3]; [7]", "result": "no effect"}, {"measurement": "effect on activation of mutated CFTR (CHO-G551D)", "setting": "[3]; [8]", "result": "no effect"}, {"measurement": "effect on activation of mutated CFTR (CHO-G551D)", "setting": "[3]; [9]", "result": "inhibition"}, {"measurement": "IC50", "setting": "[3]", "result": 43, "unit": "nM"}, {"measurement": "effect on G551D mutated receptors", "setting": "[3]", "result": "effectively antagonises the action of the forskolin and genistein activators"}]}
{"smiles": "CC1(C(=O)O)N=C2C=CC=CN2C(C)(O)C1O", "note": "(centres unmarked)", "values": [{"measurement": "pKa", "setting": "[5]; aqueous solution, aqueous solution at 25° C., read-out: pKa, carboxylic acid function", "result": "~2"}, {"measurement": "pKa", "setting": "[5]; aqueous solution, aqueous solution at 25° C., read-out: pKa, imine function", "result": "~10"}]}
{"smiles": "CC1(C(=O)O)N=C2c3nc[nH]c3N=CN2C(C)(O)C1O", "note": "(centres unmarked) [Compound 5, Adenine Adducts]", "values": [{"measurement": "IC50", "setting": "[1]", "result": 12000, "unit": "nM"}, {"measurement": "IC50", "setting": "[2]", "result": 6000, "unit": "nM"}, {"measurement": "IC50", "setting": "[3]", "result": 110000, "unit": "nM"}]}
{"smiles": "C[C@]1(C(=O)O)N=C2c3nc[nH]c3N=CN2[C@](C)(O)[C@H]1O", "note": "(single isomer, unassigned) [Compound 5b]", "values": [{"measurement": "IC50", "setting": "[2]", "result": 3000, "unit": "nM"}]}
{"smiles": "O=C(O)c1nn(Cc2ccc(Cl)cc2Cl)c2ccccc12", "note": "[lonidamine]", "values": [{"measurement": "IC50", "setting": "CFTR channel", "result": 58000, "unit": "nM"}]}
{"smiles": "CCCn1cnc2c1N=CN1C2=NC(C)(C(=O)O)C(O)C1(C)O", "note": "(mixture of isomers) [Compound 9, 9-propyladenine Adducts]", "values": [{"measurement": "effect on activation of wild-type CFTR (CHO-WT)", "setting": "[2]; [7]", "result": "activation"}, {"measurement": "effect on activation of wild-type CFTR (CHO-WT)", "setting": "[2]; [9]", "result": "activation"}, {"measurement": "Effect", "setting": "[2]", "result": "+ (In case of a significant increase, the compound was listed as an activator)"}, {"measurement": "EC50", "setting": "[2]", "result": 2000, "unit": "nM"}, {"measurement": "effect on wild-type receptors", "setting": "[2]", "result": "activator effect"}, {"measurement": "effect on activation of mutated CFTR (CHO-G551D)", "setting": "[3]; [7]", "result": "no effect"}, {"measurement": "effect on activation of mutated CFTR (CHO-G551D)", "setting": "[3]; [9]", "result": "activation"}, {"measurement": "effect on G551D mutated receptors", "setting": "[3]", "result": "unable to activate"}, {"measurement": "activation of ΔF508 mutated receptor", "setting": "[6]", "result": "can activate"}]}
{"smiles": "Cc1nc2cccc[n+]2c(C)c1[O-]", "note": "[Compound 6, 2-aminopyridine Derivative]", "values": [{"measurement": "IC50", "setting": "[1]", "result": 5, "unit": "nM"}, {"measurement": "IC50", "setting": "[2]", "result": 5, "unit": "nM"}, {"measurement": "IC50", "setting": "[3]", "result": 90, "unit": "nM"}, {"measurement": "pKa", "setting": "[5]; read-out: pKa", "result": 4}]}
{"smiles": "CCCN1C=CC2=N[C@](C)(C(=O)O)[C@@H](O)[C@@](C)(O)N2C1=O", "note": "[Compound 2a]", "values": [{"measurement": "IC50", "setting": "[2]", "result": 2, "unit": "nM"}]}
